IC50 data for 15 molecules are collected here from patent US4771057A, “Reduced pyridyl derivatives with cardiovascular regulating properties” (University of Alberta, priority 1986, dated 1988).

Each structure is given as a SMILES string.

For the experiment, the system named is guinea pig ileal longitudinal smooth muscle. Description: Calcium channel antagonist testing: inhibition of muscarinic receptor-mediated Ca2+-dependent contraction (response to CD) of guinea pig ileal longitudinal smooth muscle. The class given is cell-based. The conditions noted are these: Cavia porcellus; 50% inhibition of tonic contraction to CD 5×10^-7 M; compound added 10 min before CD; 37° C., pH 7.4; read-out: Calcium channel antagonist act., inhib. act. on contractile response to CD, ID50. As for the experimental part:
Male albino guinea pigs (body weight 300-450 g) were sacrificed by decapitation. The intestine was removed above the ileo-caecal junction. Longitudinal smooth muscle segments of 2 cm length were mounted under a resting tension of 300-400 mg. […] The muscles were equilibrated for 1 h with a solution change every 15 min. Two successive control contractions were elicited at 15 min intervals with 5×10^-7 M cis-2-methyl- 4-dimethylaminomethyl-1,3-dioxolane methiodide (CD). The isometric contractions were recorded with a force displacement transducer (FT 03C) on a GRASS physiograph. The means of the two contractile responses was taken as the 100% value for the tonic (slow) component of the response. The muscle was washed with Hepes saline solution and was allowed to re-equilibrate. The calcium antagonist (test compound) was added ten min before the dose-response for CD was determined. The drug-induced inhibition of contraction was expressed as percent of control. The ID50 values were graphically determined from the concentration-response curves.

With `COC(=O)C1=C(C)NC(C)=C(C(=O)OCC(C)C)C1C1=CCN(C(=O)Oc2ccccc2)C=C1` [Compound D-61, 3-Isobutyl-5-methyl 2,6-dimethyl-4-[4'-(N--phenoxycarbonyl)]-1,4-dihydropyridine-3,5-dicarboxylate], the IC50 came to 81 µM.
In the case of `COC(=O)C1=C(C)NC(C)=C(C(=O)OC)C1C1CC=CCN1C` [Compound D-64], the IC50 is 64.7 µM.
With `CCOC(=O)C1=C(C)NC(C)=C(C(=O)OCC)C1C1CC=CCN1C` [Compound D-65, Diethyl 2,6-dimethyl-4-[2'-(N--methyl-1',2',3',6'-tetrahydropyridyl)]-1,4-dihydropyridine-3,5-dicarboxylate] the figure was 13 µM; with `COC(=O)C1=C(C)NC(C)=C(C(=O)OC)C1C1=CCN(C)CC1` [Compound D-66, Dimethyl 2,6-dimethyl-4-[4'-(N--methyl-1',2',3',6'-tetrahydropyridyl)]-1,4-dihydropyridine-3,5-dicarboxylate], 181 µM; with `CCOC(=O)C1=C(C)NC(C)=C(C(=O)OCC)C1C1=CCN(C)CC1` [Compound D-67, Diethyl 2,6-dimethyl-4-[4'-(N--methyl-1',2',3',6'-tetrahydropyridyl)]-1,4-dihydropyridine-3,5-dicarboxylate], 4.96 µM.
With `COC(=O)C1=C(C)NC(C)=C(C(=O)OC)C1C1=CCCN(C)C1` [Compound D-68, Dimethyl 2,6-dimethyl-4-[5'-(N--methyl-1',2',3',6'-tetrahydropyridyl)]-1,4-dihydropyridine-3,5-dicarboxylate] the figure was 3.43 µM.
With `CCOC(=O)C1=C(C)NC(C)=C(C(=O)OCC)C1C1=CCCN(C)C1` [Compound D-69, Diethyl 2,6-dimethyl-4-[5'-(N--methyl-1',2',3',6'-tetrahydropyridyl)]-1,4-dihydropyridine-3,5-dicarboxylate] the figure was 1.1 µM.
As for `COC(=O)C1=C(C)N(C)C(C)C(C(=O)OC)=C1c1ccccc1` (stereo not drawn) [Compound S-1, Dimethyl 1,2,6-trimethyl-4-phenyl-1,2-dihydropyridine-3,5-dicarboxylate], the IC50 came out at 2.15 µM.
With `COC(=O)C1=C(C)N(C)C(C)C(C(=O)OC)=C1c1cccc(C(F)(F)F)c1` (stereo not drawn) [Compound S-2, Dimethyl 1,2,6-trimethyl-4-(3-trifluoromethylphenyl)-1,2-dihydropyridine-3,5-dicarboxylate] the figure was 3.5 µM; with `COC(=O)C1=C(C)N(C)C(C)C(C(=O)OC)=C1c1ccccc1C(F)(F)F` (stereo not drawn) [Compound S-3, Dimethyl 1,2,6-trimethyl-4-(2-trifluoromethylphenyl)-1,2-dihydropyridine-3,5-dicarboxylate], 12 µM.
On to `COC(=O)C1=C(C)N(C)C(C)C(C(=O)OC)=C1c1ccc([N+](=O)[O-])cc1` (stereo not drawn) [Compound S-4, Dimethyl 1,2,6-trimethyl-4-(4-nitrophenyl)-1,2-dihydropyridine-3,5-dicarboxylate], for which the IC50 was determined as 23.5 µM.
With `COC(=O)C1=C(C)N(C)C(C)C(C(=O)OC)=C1c1cccc([N+](=O)[O-])c1` (stereo not drawn) [Compound S-5, Dimethyl 1,2,6-trimethyl-4-(3-nitrophenyl)-1,2-dihydropyridine-3,5-dicarboxylate] the figure was 7.9 µM.
With `COC(=O)C1=C(C)N(C)C(C)C(C(=O)OC)=C1c1ccccc1[N+](=O)[O-]` (stereo not drawn) [Compound S-6, Dimethyl 1,2,6-trimethyl-4-(2-nitrophenyl)-1,2-dihydropyridine-3,5-dicarboxylate] the figure was 2.52 µM; with `COC(=O)C1=C(C)N(C)C(C)C(C(=O)OC)=C1c1ccc(C(F)(F)F)cc1` (stereo not drawn) [Compound W-1, Dimethyl 1,2,6-trimethyl-4-(4-trifluoromethylphenyl)-1,2-dihydropyridine-3,5-dicarboxylate], 8.92 µM.
With `COC(=O)C1=C(c2ccccc2[N+](=O)[O-])C(C(=O)OC(C)C)=C(C)N(C)C1C` (stereo not drawn) [Compound W-2, 3-Methyl-5-isopropyl 1,2,6-trimethyl-4-(2-nitrophenyl)-1,2-dihydropyridine-3,5-dicarboxylate] the figure was 20 µM.
